Assays:
[1] = molecular target: T1, CFTR-mediated chloride transport in human intestinal epithelial enteroid cells (Homo sapiens, UniProt P13569); assay: Membrane potential dye, Enteroid Assay B; format: cell-based; conditions: Enteroid Assay B; for EC50: read-out: Ent. B EC50
Experimental: Base medium (ADF+++) consisted of Advanced DMEM/Ham's F12, 2 mM Glutamax, 10 mM HEPES, […] penicillin/streptomycin.
Bath 1 Buffer consisted of 1 mM MgCl2, 160 mM NaCl, 4.5 mM KCl, 10 mM HEPES, 10 mM Glucose, 2 mM CaCl2.
Chloride Free Buffer consisted of 1 mM Magnesium Gluconate, 2 mM Calcium Gluconate, 4.5 mM Potassium Gluconate, 160 mM Sodium Gluconate, 10 mM HEPES, 10 mM Glucose.
Bath1 Dye Solution consisted of Bath 1 Buffer, 0.04% Pluronic F127, 20 μM Methyl Oxonol, 30 μM CaCCinh-A01, 30 μM Chicago Sky Blue.
Chloride Free Dye Solution consisted of Chloride Free Buffer, 0.04% Pluronic F127, 20 μM Methyl Oxonol, 30 μM CaCCinh-A01, 30 μM Chicago Sky Blue.
3. Enteroid Cell Harvesting and Seeding
Cells were recovered in cell recovery solution, collected by centrifugation at 650 rpm for 5 min at 4° C., resuspended in TryPLE and incubated for 5 min at 37° C. Cells were then collected by centrifugation at 650 rpm for 5 min at 4° C. and resuspended in IEMM containing 10 μM ROCK inhibitor (RI).
5. Membrane Potential Dye, Enteroid Assay B
Briefly, cells were washed 5 times in Bath 1 Buffer. Bath 1 Dye Solution was added and the cells were incubated for 25 min at room temperature. Following dye incubation, cells were washed 3 times in Chloride Free Dye Solution. Chloride transport was initiated by addition of Chloride Free Dye Stimulation Solution and the fluorescence signal was read for 15 min.

[2] = molecular target: T1, CFTR-mediated chloride transport in human intestinal epithelial enteroid cells; assay: Membrane potential dye, Enteroid Assay A; format: cell-based
Procedure, shortened: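 Membrane potential dye (20 μM methyl oxonol, with 30 μM CaCCinh-A01 and 30 μM Chicago Sky Blue) loaded 25 min at room temperature into ROCK-inhibitor-seeded human enteroid cells. Chloride-free stimulation buffer triggered transport, followed by 15 min fluorescence. % Activity relative to 3 μM/3 μM/300 nM triple-combination control.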

T1 sequence (P13569 with tags, fused parts or gaps DEL508-508): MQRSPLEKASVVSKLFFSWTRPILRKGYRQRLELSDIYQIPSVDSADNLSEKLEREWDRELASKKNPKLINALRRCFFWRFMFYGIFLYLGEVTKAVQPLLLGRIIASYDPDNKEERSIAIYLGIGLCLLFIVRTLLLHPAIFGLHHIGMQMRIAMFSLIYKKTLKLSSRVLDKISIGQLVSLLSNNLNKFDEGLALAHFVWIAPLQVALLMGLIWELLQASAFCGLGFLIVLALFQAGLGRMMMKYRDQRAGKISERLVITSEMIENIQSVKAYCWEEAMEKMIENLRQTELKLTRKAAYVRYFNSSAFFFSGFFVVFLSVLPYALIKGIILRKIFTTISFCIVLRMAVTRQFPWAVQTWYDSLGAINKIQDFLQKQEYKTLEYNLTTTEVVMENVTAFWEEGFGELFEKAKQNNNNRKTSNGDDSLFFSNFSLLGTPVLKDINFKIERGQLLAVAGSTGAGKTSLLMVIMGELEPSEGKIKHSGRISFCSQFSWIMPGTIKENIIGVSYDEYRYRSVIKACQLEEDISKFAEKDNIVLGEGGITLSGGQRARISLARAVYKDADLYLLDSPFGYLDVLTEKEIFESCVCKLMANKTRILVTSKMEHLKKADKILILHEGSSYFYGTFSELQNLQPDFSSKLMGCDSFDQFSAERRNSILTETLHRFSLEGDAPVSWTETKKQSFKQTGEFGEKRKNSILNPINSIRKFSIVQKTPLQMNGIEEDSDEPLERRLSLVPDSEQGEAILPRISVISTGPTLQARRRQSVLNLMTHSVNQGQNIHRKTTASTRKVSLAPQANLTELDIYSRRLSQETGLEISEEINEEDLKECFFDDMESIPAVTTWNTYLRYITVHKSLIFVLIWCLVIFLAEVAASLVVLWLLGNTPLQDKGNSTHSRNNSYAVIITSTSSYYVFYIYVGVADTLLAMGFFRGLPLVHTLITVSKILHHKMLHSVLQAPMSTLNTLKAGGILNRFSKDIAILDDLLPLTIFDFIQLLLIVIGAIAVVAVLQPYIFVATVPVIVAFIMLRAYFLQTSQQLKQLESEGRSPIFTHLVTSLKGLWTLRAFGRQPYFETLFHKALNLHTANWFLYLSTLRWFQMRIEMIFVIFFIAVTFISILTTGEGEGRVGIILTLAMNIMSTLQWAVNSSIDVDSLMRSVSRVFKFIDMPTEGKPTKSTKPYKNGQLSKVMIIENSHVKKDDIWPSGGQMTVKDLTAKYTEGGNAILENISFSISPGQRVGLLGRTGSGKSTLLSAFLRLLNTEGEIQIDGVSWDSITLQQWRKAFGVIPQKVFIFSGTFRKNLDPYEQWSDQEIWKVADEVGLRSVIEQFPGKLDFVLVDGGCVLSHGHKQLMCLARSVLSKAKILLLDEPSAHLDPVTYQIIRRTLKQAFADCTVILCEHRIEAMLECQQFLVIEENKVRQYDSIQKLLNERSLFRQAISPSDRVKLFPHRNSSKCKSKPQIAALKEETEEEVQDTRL

Ent. B Max Activity (%) [1]	EC50 [1]	EC50 ([2]; enteroid cells incubated with test compound 18-24 hours, acute 10 μM forskolin and 300 nM N-[2,4-bis(1,1-dimethylethyl)-5-hydroxyphenyl]-1,4-dihydro-4-oxoquinoline-3-carboxamide, read-out: Ent. A EC50)	SMILES	Ent. A Max Activity (%) ([2]; percentage of chloride transport of triple combination control (3 μM N-[(6-amino-2-pyridyl)sulfonyl]-6-(3-fluoro-5-isobutoxy-phenyl)-2-[(4S)-2,2,4-trimethylpyrrolidin-1-yl]pyridine-3-carboxamide based))
+++ (+++ is >600%)	1000 to 3000 nM	–	Cc1cccc(C)c1-c1cc2nc(n1)NS(=O)(=O)c1cccc(c1)C(=O)N1C[C@@H](CN(C(=O)OC(C)(C)C)C[C@@H]1CCO)O2 (single isomer, unassigned) [Compound 137, tert-butyl 12-(2,6-dimethylphenyl)-20-(2-hydroxyethyl)-2,8,8-trioxo-15-oxa-8λ^6-thia-1,9,11,18,22-pentaazatetracyclo[14.4.1.13,7.110,14]tricosa-3(23),4,6,10(22),11,13-hexaene-18-carboxylate]	–
+ (+ is <30%)	–	–	Cc1cccc(C)c1-c1cc2nc(n1)NS(=O)(=O)c1cccc(c1)C(=O)N1C[C@@H](CCC[C@@H]1CC(C)C)O2 (single isomer, unassigned) [Compound 179]	–
++ (++ is 30-60%)	< 1000 nM	–	Cc1cccc(C)c1-c1cc2nc(n1)NS(=O)(=O)c1cccc(c1)C(=O)N1C[C@@H](CCC[C@@H]1CC(C)C)O2 (single isomer, unassigned) [Compound 180]	–
++ (++ is 30-60%)	< 1000 nM	–	Cc1cccc(C)c1-c1cc2nc(n1)NS(=O)(=O)c1cccc(c1)C(=O)N1C[C@H](O2)c2ccccc2[C@@H]1CC(C)C (single isomer, unassigned) [Compound 190, 12-(2,6-Dimethylphenyl)-23-(2-methylpropyl)-15-oxa-8λ^6-thia-1,9,11,25-tetraazapentacyclo[14.7.1.13,7.110,14.017,22]hexacosa-3(26),4,6,10(25),11,13,17,19,21-nonaene-2,8,8-trione]	–
++ (++ is 30-60%)	< 1000 nM	–	Cc1cccc(C)c1-c1cc2nc(n1)NS(=O)(=O)c1cccc(c1)C(=O)N1C[C@H](O2)c2ccccc2[C@@H]1CC(C)C (single isomer, unassigned) [Compound 191, 12-(2,6-Dimethylphenyl)-23-(2-methylpropyl)-15-oxa-8λ^6-thia-1,9,11,25-tetraazapentacyclo[14.7.1.13,7.110,14.017,22]hexacosa-3(26),4,6,10(25),11,13,17,19,21-nonaene-2,8,8-trione]	–
+ (+ is <30%)	–	–	Cc1cccc(C)c1-c1cc2nc(n1)NS(=O)(=O)c1cccc(c1)C(=O)N1Cc3cc(C(C)(C)C)ccc3C(CO2)C1C (single isomer, unassigned) [Compound 218, 21-tert-Butyl-12-(2,6-dimethylphenyl)-25-methyl-15-oxa-8λ^6-thia-1,9,11,26-tetraazapentacyclo[15.7.1.13,7.110,14.018,23]heptacosa-3,5,7(27),10,12,14(26),18,20,22-nonaene-2,8,8-trione]	–
+++ (+++ is >600%)	< 1000 nM	–	Cc1cccc(C)c1-c1cc2nc(n1)NS(=O)(=O)c1cccc(c1)C(=O)N1Cc3cc(C(C)(C)C)ccc3C(CO2)C1C (single isomer, unassigned) [Compound 219, 21-tert-butyl-12-(2,6-dimethylphenyl)-25-methyl-15-oxa-8λ^6-thia-1,9,11,26-tetraazapentacyclo[15.7.1.13,7.110,14.018,23]heptacosa-3,5,7(27),10,12,14(26),18,20,22-nonaene-2,8,8-trione]	–
+++ (+++ is >600%)	< 1000 nM	–	Cc1cccc(C)c1-c1cc2nc(n1)NS(=O)(=O)c1cccc(c1)C(=O)N1CCc3cc(C(C)(C)C)ccc3[C@H]1CO2 (single isomer, unassigned) [Compound 236, 8-tert-Butyl-17-(2,6-dimethylphenyl)-14-oxa-21λ^6-thia-3,18,20,27-tetraazapentacyclo[20.3.1.115,19.03,12.06,11]heptacosa-1(26),6(11),7,9,15(27),16,18,22,24-nonaene-2,21,21-trione]	–
–	–	< 1000 nM	Cc1cccc(C)c1-c1cc2nc(n1)NS(=O)(=O)c1cccc(c1)C(=O)N1CCC3(CC3)C(C1)O2 (stereo not shown) [Compound 370]	+++ (+++ is >60%)

Reference: US20240018161A1, “MODULATORS OF CYSTIC FIBROSIS TRANSMEMBRANE CONDUCTANCE REGULATOR” (VERTEX PHARMACEUTICALS INCORPORATED, priority 2020, published 2024)
